The values that follow come from patent US12503432B2, “Ionizable lipids for nucleic acid delivery” (Global Life Sciences Solutions Canada ULC, priority 2019, dated 2025).

A word on the pKa: it is the pH at which an ionisable group is half protonated.

A short description of data set [1]: TNS fluorescence assay: experimental pKa of formulated lipid nanoparticles. The class given is physicochemical. The note with it: experimental surface pKa of empty LNP, cationic lipid/DSPC/cholesterol/PEG-lipid (50/10/38.5/1.5). Here is the method:
The pKa of each cationic lipid was determined in lipid nanoparticles using an assay based on fluorescence of 6-(p-Toluidino)-2-naphthalenesulfonic acid sodium salt (TNS, Sigma Aldrich), which is a fluorescent probe for the conformational state of proteins^5. Empty lipid nanoparticles comprising of cationic lipid/DSPC/cholesterol/PEG-lipid (50/10/38.5/1.5) in distilled water at a concentration of 3.125 mM total lipid are formulated using NanoAssemblr® Spark™, and were then was characterized for LNP quality on the Zetasizer™ using a 30× dilution with 1×PBS in the low volume cuvette. Lipid nanoparticles were further diluted 4× using distilled water to 0.781 mM total lipid. TNS was prepared as a 25 μM stock solution in distilled water. Then 6.4 μL of diluted LNP samples of 0.781 mM total lipid were mixed with 10 μL of diluted TNS to a final volume of 250 μL with buffer containing 10 mM HEPES, 10 mM MES, 10 mM NH4OAc and 130 mM NaCl where the pH ranged from 3 to 9 in 0.5 pH increments.
Samples were mixed thoroughly, and the fluorescence intensity was measured at room temperature in a BioTek™ Synergy™ H1 Hybrid Multi-Mode Monochromator™ Fluorescence Microplate Reader using excitation and emission wavelengths of 321 nm and 445 nm respectively. A sigmoidal best fit analysis was applied to the fluorescence data using GraphPad Prism™ software, and the pKa was measured as the pH at half-maximal fluorescence intensity.

For a further data set, the system named is C57BL/6 mice. Nature of the data set: In vivo delivery of EPO-encoded mRNA LNP via intravenous route, serum EPO ELISA. On the set-up: key to EPO Protein expression: IV in mice: *: The number of asterix symbols indicates protein expression levels interpreted by the inventors from quantitative data; **: The number of asterix symbols indicates protein expression levels interpreted by the inventors from quantitative data; ***: The number of asterix symbols indicates protein expression levels interpreted by the inventors from quantitative data; ****: The number of asterix symbols indicates protein expression levels interpreted by the inventors from quantitative data; *****: The number of asterix symbols indicates protein expression levels interpreted by the inventors from quantitative data; *******: The number of asterix symbols indicates protein expression levels interpreted by the inventors from quantitative data. The note with it: qualitative grade interpreted from quantitative data. The text has this:
Lipid Nanoparticles with the composition IL/DSPC/Cholesterol/PEG-DMG2000 (LM 02—see Table 3) were used to encapsulate recombinant human erythropoietin (EPO) encoded mRNA with 5-moU modifications [TriLink CleanCapo 5-moU EPO mRNA L7201]. To create the LNP, lipid mix in ethanol was microfluidically mixed with a low PH buffered solution of 5-moU EPO mRNA mixer at an N/P ratio of 6 using a NanoAssemblr® Ignite™ microfluidic mixer. The microfluidically mixed particles were downstream processed using Amicon® ultra 15 10 kDa MWCO units (EMD Millipore) filtration technique. The RNA loaded lipid particles were then characterized for size, PDI and Encapsulation Efficiency (EE). Size and PDI were measured using dynamic light scattering techniques described above, and nucleic acid encapsulation efficiency was calculated using a Quant-iT RiboGreen RNA assay as described supra, modified to use hEPO mNA as the standard instead if the standard RNA in the kit. The hydrodynamic diameter of these mRNA-LNPs was ˜70 nm with a PDI in the range of 0.02 to 0.1 and an encapsulation efficiency of ˜97.8%.
Animals were handled according to the Institutional Animal Care and Use Committee ethics protocols. For experiments, 6-8 week old C57BL/6 mice were purchased from Envigo (South Kent, WA, USA). For in vivo activity, female C57BL/6 mice were treated intravenously with EPO mRNA LNPs at specified dosages of 0.5-3 mg/Kg. Samples of 50-75 μL of blood were collected 6 h post administration via saphenous vein, and at regular time intervals of 24 h or 48 h.
After harvest, blood was immediately prepared to produce serum samples using standard techniques, and stored at −80 degrees C. Briefly, after collection, the blood was allowed to clot at room temperature for 15-30 minutes. The clot was removed by centrifuging the tubes at 1000-2000×g for 10 min at 4 degrees Celsius. The clear golden-yellow color supernatant was carefully removed and transferred to sterile screw-capped clear polypropylene tubes on ice. The serum was then stored, if necessary, at −80° C. until analysis.
Samples were thawed, then analyzed at appropriate dilutions for EPO protein expression and for cytokine/chemokine levels. The total serum EPO levels were evaluated using Quantikine® IVD EPO ELISA kit (Bio-Techne, Minneapolis, MN, USA).
Following i.v administration of a 0.5 mg/Kg dose of recombinant human EPO-encoded mRNA LNPs containing ionizable lipid MC3, PNI 121 or PNI 123 using the LM02 composition at N/P 6, EPO expression levels at 6 h (upper, FIG. 6) and at 24 h (lower, FIG. 6) in C56BL/6 mice were examined; hEPO protein was measured using Quantikine® IVD® ELISA Human Erythropoietin Immunoassay protocol.
(An ELISA detects its analyte on a solid surface through an enzyme-linked reagent.)

Data set [2] is described as follows: LNP characterization: size and PDI by dynamic light scattering, mRNA encapsulation efficiency by RiboGreen assay. The class given is physicochemical. Here is the method: Particle sizes and “polydispersity index” (PDI) of the lipid particle were measured by dynamic light scattering (DLS). PDI indicates the width of the particle distribution. This is a parameter calculated from a cumulative analysis of the (DLS)-measured intensity autocorrelation function assuming a single particle size mode and a single exponential fit to the autocorrelation function. […] The particles produced by mechanical micromixers such as the NanoAssemblr® Spark™ and NanoAssemblr® Benchtop (Precision NanoSystems Inc.) are substantially homogeneous in size assuming all other variables are neutral. A lower PDI indicates a more homogenous population of lipid particles. The Spark™ instrument is used in a screening setting to identify the lead compositions. Once the composition is selected, the lipid particle can be fine-tuned using the NanoAssemblr® Benchtop. Once the process parameters Flow Rate Ratio and Total Flow Rate is identified for the specific nanoparticle composition, the nanoparticle technology can be scaled up using the same process parameter values.
Lipid particles were also manufactured by a larger microfluidic mixer instrument, the NanoAssemblr® Ignite™ for testing. Briefly, 350 μL of mRNA was diluted using 100 mM sodium acetate buffer to the required concentration of 0.2 to 0.3 mg/mL. Lipid particle samples were then prepared by running both fluids, namely, nucleic acids in aqueous solvent and Lipid Mix in ethanol at a flow ratio of 3:1 and at a total flow rate of 12 ml/min in the microfluidic mixer. Following mixing in the microfluidic device, the post cartridge lipid nucleic acid particle sample was diluted into RNAse free tubes containing three to 40 volumes of phosphate buffered saline (PBS), pH 7.4. Ethanol was finally removed through dialysis in PBS, pH 7, or using Amicon™ centrifugal filters (Millipore, USA) at 3000 RPM, or using TFF systems. Once the required concentration was achieved, the lipid nucleic acid particles were filter sterilized using 0.2 μm filters in aseptic conditions. Final encapsulation efficiency was measured by the Ribogreen™ assay. Quant-iT™ RiboGreen® RNA Reagent and Kit (Invitrogen) following manufacturer directions.
Messenger RNA or plasmid nucleic acid therapeutic (NAT) as described below, was diluted using sodium acetate buffer to the required concentration. Lipid nucleic acid particle (LNAP) samples were then prepared by running both fluids using the NanoAssemblr® Spark instrument. Briefly, […] of nucleic acids in 100 mM sodium acetate buffer in a total volume of 32 μL was mixed with 16 μL of 37.5 mM lipid mix solution as required by the N/P ratios (4, 6, or 10 in illustrated examples). The microfluidically mixed lipid nucleic acid particles (LNAP) made in the instrument were immediately diluted down with 48 μL Ca++ and Mg++ free 1× PBS at pH 7.4 in the aqueous output well. These LNAP were immediately collected into microcentrifuge tubes containing 96 μL of the same buffer at pH 7.4. Encapsulation efficiency was measured by a modified Ribogreen™ assay (Quanti-iT RiboGreen™ RNA assay kit, Fisher). This information was used to establish the desired dosage.
After the lipid particles were made as described in Example 17, particle size (hydrodynamic diameter of the particles) was determined by Dynamic Light Scattering (DLS) using a ZetaSizer™ Nano ZS™ (Malvern Instruments, UK). He/Ne laser of 633 nm wavelength was used as the light source. Data were measured from the scattered intensity data conducted in backscattering detection mode (measurement angle=173). Measurements were an average of 10 runs of two cycles each per sample. Z-Average size was reported as the particle size, and is defined as the harmonic intensity averaged particle diameter. These LNP characteristics, as well as the results of the mRNA encapsulation efficiency for various Lipid Mixes are also described in the application are shown in Tables 4, 5 and 6. […]

Setting [3] is: 5-moU EPO encoded LNPs, IL:DSPC:cholesterol:DMG-PEG (50:10:38.5:1.5), N/P 6.
Setting [4] is: OVA encoded LNPs, payload WT OVA, LM02, N/P 8.
Setting [5] is: Table 4 LNPs, payload and lipid mix not stated.

Consider `CC/C=C\CC1C(CC(=O)OCC(COCCCCCCCC/C=C\C/C=C\CCCCC)OCCCCCCCC/C=C\C/C=C\CCCCC)CCC1OC(=O)CCN(C)C` (centres unmarked) [PNI 128], for which the pKa in data set [1] was 5.56. Moreover, in the data set on C57BL/6 mice, the “EPO Protein expression: IV in mice” value is reported as “****”. Further, the “Diameter (Z. ave, nm)” value in data set [2] (setting [3]) is given as 64.8 nm; in data set [2] (setting [4]) it was 74.9 nm; in data set [2] (setting [5]) it was 61.7 nm. The “Encapsulation Efficiency (%)” value in data set [2] (setting [3]) came out at 97.1%; in data set [2] (setting [4]), 97.0%; in data set [2] (setting [5]), 88.2%. Further, the results for the “Polydispersity Index (PDI)” value in data set [2] (setting [3]), in data set [2] (setting [4]) and in data set [2] (setting [5]) were 0.04, 0.02 and 0.09, respectively.
With `CC/C=C\CC1C(CC(=O)OCC(COCCCCCCCC/C=C\C/C=C\CCCCC)OCCCCCCCC/C=C\C/C=C\CCCCC)CCC1OC(=O)C1CCN(C)C1` (centres unmarked) [PNI 135], in data set [1], the pKa came out at 5.48.
As for `CC/C=C\CC1C(CC(=O)OCC(COCCCCCCCC/C=C\C/C=C\CCCCC)OCCCCCCCC/C=C\C/C=C\CCCCC)CCC1OC(=O)Cc1cn(C)cn1` (centres unmarked) [PNI 143], the pKa in data set [1] was 4.31. Further, in data set [2] (setting [3]), the “Diameter (Z. ave, nm)” value was found to be 88.0 nm; the “Encapsulation Efficiency (%)” value turned out to be 98.7%; the “Polydispersity Index (PDI)” value amounted to 0.87.
For `CCCCC/C=C\C/C=C\CCCCCCCCOCC(COC(=O)CC1CCC(OC(=O)CCCN(C)C)C1)OCCCCCCCC/C=C\C/C=C\CCCCC` (centres unmarked) [PNI 148], the pKa in data set [1] worked out at 6.77.
As for `CC/C=C\CC1C(CC(=O)OCC(COC(=O)CCCCCCC/C=C\C/C=C\CCCCC)OC(=O)CCCCCCC/C=C\C/C=C\CCCCC)CCC1OC(=O)CCCN(C)C` (centres unmarked) [PNI 269], the pKa in data set [1] stood at 6.28.
For the compound `CC/C=C\CC1C(CC(=O)OCCC(CCCCCCCC/C=C\C/C=C\CCCCC)OC(=O)C(CCCCCC)CCCCCCCC)CCC1OC(=O)CCCN(C)C` (centres unmarked) [PNI 510], the pKa in data set [1] was 6.2.
For `CC/C=C\CC1C(CC(=O)OCC(COC(=O)CCCCCCCC2CC2CCCCCCCC)OC(=O)CCCCCCCC2CC2CCCCCCCC)CCC1OC(=O)CCCN(C)C` (centres unmarked) [PNI 515], the pKa in data set [1] turned out to be 6.27.
As for `CC/C=C\CC1C(CC(=O)OCC(COCCCCCCCCC2CC2CCCCCCCC)OCCCCCCCCC2CC2CCCCCCCC)CCC1OC(=O)CCCN(C)C` (centres unmarked) [PNI 543], in data set [1], the pKa turned out to be 6.31. In addition, in the data set on C57BL/6 mice, the “EPO Protein expression: IV in mice” value is given as “***”. In data set [2] (setting [3]), the “Diameter (Z. ave, nm)” value amounted to 73.6 nm; the “Encapsulation Efficiency (%)” value worked out at 98.7%; the “Polydispersity Index (PDI)” value turned out to be 0.14.
As for `CC/C=C\CC1C(CC(=O)OCC(COCCCCCCCCCCCCCC)OCCCCCCCCCCCCCC)CCC1OC(=O)CCN(C)C` (centres unmarked) [PNI 547], in data set [1], the pKa was 5.95.
`CCCCCCCCCCCCCCOCC(COC(=O)CC1CCC(OC(=O)CCN(C)C)C1CCCCC)OCCCCCCCCCCCCCC` (centres unmarked) [PNI 548]: the pKa in data set [1] worked out at 5.5.
Still for that read-out and setting: as for `CC/C=C\CC1C(CC(=O)OCC(COC(=O)CCCCCCCC2CC2CCCCCCCC)OC(=O)CCCCCCCC2CC2CCCCCCCC)CCC1OC(=O)CCN(C)C` (centres unmarked) [PNI 551], the figure is 5.5; as for `CC/C=C\CC1C(CC(=O)OCCC(CCCCCCCC/C=C\C/C=C\CCCCC)OC(=O)C(CCCCCC)CCCCCCCC)CCC1OC(=O)CCN(C)C` (centres unmarked) [PNI 552], 5.42.
With `CC/C=C\CC1C(CC(=O)OCCC(CCCCCCCC)OC(=O)C(CCCCCC)CCCCCCCC)CCC1OC(=O)CCCN(C)C` (centres unmarked) [PNI 562], the pKa in data set [1] is 6.36.
For `CC/C=C\CC1C(CC(=O)OCCC(CCCCCCCC/C=C\C/C=C\CCCCC)OC(=O)C(CCCCCC)CCCCCCCC)CCC1OC(=O)C1(C)CCN(C)CC1` (centres unmarked) [PNI 563], the pKa in data set [1] was determined as 5.96.
`CC/C=C\CC1C(CC(=O)OCC(COCCCCCCCC/C=C\C/C=C\CCCCC)OCCCCCCCC/C=C\C/C=C\CCCCC)CCC1OC(=O)CN1CCN(C)CC1` (centres unmarked) [PNI 567]: the pKa in data set [1] is 6.23.
